Read-outs that look alike come from different tables or passages of the source. No end group written: not given here. *: point of attachment. Myristoyl = CCCCCCCCCCCCCC(=O)*
Assays:
RhoA = RhoA activity assay (GST-RBD pull down) in platelets; format: cell-based, human; details: human platelets adherent to fibrinogen
Protocol: Platelets in modified Tyrode's buffer or adherent on immobilized fibrinogen were lysed quickly in 0.8 ml lysis buffer (50 mM Tris, pH 7.4, 10 mM MgCl2, 500 mM NaCl, 1% Triton X-100, 0.1% SDS, 0.5% deoxycholate, 10 μg/ml each of aprotinin and leupeptin, 1 mM phenylmethylsulfonyl fluoride, and 200 μM sodium vanadate). Lysates were cleared by centrifugation at 18,000 g for 2 minutes at 4° C., and the supernatant was incubated for 1 hour with 30 μg purified GST-Rhotekin RhoA-binding domain fusion protein (GST-RBD) bound to glutathione-Sepharose beads (S10). Samples were washed three times using washing buffer (50 mM Tris, pH 7.4, 10 mM MgCl2, 150 mM NaCl, 1% Triton X-100) and then immunoblotted with an anti-RhoA monoclonal antibody. Cell lysates were also immunoblotted with anti-RhoA as loading control.

c-Src = details: human platelets adherent to fibrinogen
Protocol: (FIG. 3A) Washed human platelets pre-treated with DMSO, mSRI, or scrambled control peptide were allowed to adhere to fibrinogen and then solubilized at indicated time points. Proteins from lysates were immunoblotted with antibodies to c-Src phosphorylated at Tyr^416, c-Src, or RhoA. GTP-bound RhoA was measured by association with GST-RBD beads (25). See FIG. S4 for quantitative data. (FIG. 3B) Spreading of platelets treated with 0.1% DMSO, scrambled control peptide, or mSRI, in the absence or presence of C3 toxin, Y27632, or 0.01 U/ml thrombin. Platelets were stained with Alexa Fluor 546-conjugated phalloidin.
(FIG. 13A) Platelets were treated with 500 μM control peptide, mP13, mP7, or mP5 peptides, then immunoprecipitated with anti-Gα13 antibody or equal amount of control rabbit IgG. Lysates and immunoprecipitates were immunoblotted with anti-Gα13 or anti-β3 (MAb15) antibody. (FIG. 13B) Human platelets treated with DMSO, Myr-Scrambled peptide or mP5 peptide were allowed to adhere to immobilized fibrinogen, solubilized and analyzed for RhoA activation and c-Src Tyr^416 phosphorylation. (FIG. 13C) Confocal microscopy images of platelets treated with DMSO, Myristoylated Scrambled peptides, and mP5 peptide treated platelets adherent on fibrinogen for 30 minutes, without or with Rho kinase inhibitor Y27632. Merged […] (green) fluorescence and Alexa Fluor 546-conjugated phalloidin (red) fluorescence. (FIG. 13D) Flow cytometry analysis of PAR4AP (50 μM)-induced Oregon-green labelled fibrinogen binding to human platelets pre-treated with DMSO, 250 μM Myr-Scrambled peptide or 250 μM mP5 peptide. (FIG. 13E) Platelets were preincubated with mP5 or scrambled control peptides and then stimulated with thrombin in a platelet aggregometer at 37° C. Platelet aggregation traces were recorded.
Western blot bands were scanned, and analyzed for uncalibrated optical density using NIH Image J software. Student t-test was used to determine statistical significance.

[1] = system: human platelet-rich plasma; details: 250 μM peptide
Protocol: Studies using human platelets were approved by the Institutional Review Board of University of Illinois at Chicago. […] Clot retraction was analyzed with the previously described method (S6, S7). Briefly, mouse platelets (6×10^8/ml) were resuspended in platelet-depleted human plasma, and 0.4 U/ml α-thrombin was added to initiate coagulation. The clots were photographed at various time points. Sizes of retracted clots on photographs were quantified using NIH Image J software. Statistical significance was determined using t-test.
Clot Retraction Assays were carried out as follows: Similar as described before(2, 3), freshly prepared human whole blood was citrated with 1/10 volume of 3.8% sodium citrate. After centrifugation at 1300 rpm for 22 min with break, platelet rich plasma (PRP) was collected. Pre-incubated of PRP with 0.05% DMSO (vehicle), 250 μM mP5 peptide, 250 μM mP13 peptide, or their corresponding scrambled control peptides mP5Scr or mP13Scr for 5 minutes at room temperature. After that, 0.5 U/ml thrombin was added into PRP and mixed gently. The clots were formed and allowed to retract at 37° C. incubator with CO2 and were photographed at various times. The two-dimensional sizes of retracted clots on photographs were quantified using Image J software and were expressed as clot size. Statistical significance was determined using a t test (n=3).

Myr-EEERA [mP5]
RhoA activation (RhoA activity) (RhoA): increased | c-Src-dependent transient RhoA inhibition (RhoA): inhibited | integrin-dependent phosphorylation of c-Src Tyr416 (c-Src activation) (c-Src): inhibited | integrin-dependent phosphorylation of c-Src Tyr416 (c-Src activation) (c-Src; listed as Myr-P5): decreased | clot retraction [1]: accelerated

Myristoyl-KFEEERA [mP7]
c-Src-dependent transient RhoA inhibition (RhoA): inhibited | integrin-dependent phosphorylation of c-Src Tyr416 (c-Src activation) (c-Src): inhibited

Myristoyl-KFEEERARAKWDT [mP13]
c-Src-dependent transient RhoA inhibition (RhoA): inhibited | integrin-dependent phosphorylation of c-Src Tyr416 (c-Src activation) (c-Src): inhibited | clot retraction [1]: inhibited

Myristoyl-LLARRPTKGIHEY [mSRI]
RhoA activation (RhoA activity) (RhoA): accelerated | integrin-dependent phosphorylation of c-Src Tyr416 (c-Src activation) (c-Src): inhibited | clot retraction [1]: accelerated

Reference: US10738080B2, “Inhibitors of beta integrin-G protein alpha subunit binding interactions” (priority 2010, dated 2020)
